According to US5387109A (priority 1992, dated 1995):

Tested on: fructosylamine deglycase
Assay: Influence by inhibitors on the enzyme
Type: biochemical, Candida guilliermondii 7087
Conditions: 2 mM inhibitor; 10 mM phosphate buffer pH 6.0; 37° C., 4 minutes
Procedure: The influence of a 2 mM inhibitor on the enzyme was as follows: […]

Compound	Inhibition of the enzyme
[N-]=[N+]=[N-].[Na+] [NAN3]	not inhibited
[Cu+2] [Cu^2+]	strongly inhibited
[Mg+2] [Mg^2+]	not inhibited
[Ni+2] [Ni^2+]	strongly inhibited
[Co+2] [Co^2+]	strongly inhibited
[Zn+2] [Zn^2+]	strongly inhibited
O=C(O)c1cc[c]([Hg][Cl])cc1 [p-chloromercuribenzoic acid]	strongly inhibited

Tested on: fructosylamine deglycase
Assay: Substrate specificity of the enzyme to amadori compounds (colorimetric determination of hydrogen peroxide formed)
Type: biochemical, Candida guilliermondii 7087
Conditions: substrate concentration 1 mM
Procedure: 0.1 ml of 1 mM di-fructosyl-lysine (as dissolved in 0.05M phosphate buffer pH 7.0) is added to 0.4 ml of 0.05M phosphate buffer (pH 7.0) containing 0.3 mM 4-aminoantipyrine, 0.5 mM N-ethyl-N-(2-hydroxy-3-sulfopropyl)-m-toluidine (TOOS) and 2.0 U/ml peroxidase, and the temperature of the resulting system is equilibrated at 37° C. To this is added 0.06 ml of the enzyme solution having a suitable activity, whereupon the variation of the absorbance of the system is measured with a spectrophotometer (U-2000 Model, manufactured by Hitachi Ltd. ). From the calibration curve as formed from a standard solution containing a determined amount of hydrogen peroxide to indicate the relation between the variation of the absorbance and the amount of hydrogen peroxide, the amount of the hydrogen peroxide as formed in the test system is obtained. The amount of the enzyme of forming one micromole of hydrogen peroxide per one minute is defined to be one activity unit.
0.2 ml of 1 mM di-fructosyl-lysine (as dissolved in 0.05M phosphate buffer pH 7.0) is prepared, and the temperature of it is equilibrated at 37° C. To this is added 0.12 ml of the enzyme solution having a suitable activity and reacted for a suitable period of time at 37° C., and the reaction is stopped in a hot water bath of 100° C. To this is added 0.8 ml of 0.05M phosphate buffer (pH 7.0) containing 0.3 mM 4-aminoantipyrine, 0.5 mM TOOS and 2.0 U/ml peroxidase, whereupon the variation of the absorbance of the system is measured with a spectrophotometer (U-2000 Model, manufactured by Hitachi Ltd. ). From the calibration curve as formed from a standard solution containing a determined amount of hydrogen peroxide to indicate the relation between the variation of the absorbance and the amount of hydrogen peroxide, the amount of the hydrogen peroxide as formed in the test system is obtained. The amount of the enzyme of forming one micromole of hydrogen peroxide per one minute is defined to be one activity unit.
The enzyme catalyzes the reaction of decomposing amadori compounds of α-amino acids, β-amino acids, ε-amino acids, D-amino acids and amines to form a glucosone, hydrogen peroxide and the corresponding amino acid or amine. The enzyme not only decomposes amadori compounds of α-amino acids but also effectively acts on other amadori compounds having fructose as bonded to amino groups as positioned in other positions than the α-position of amino acids (for example, di-D-fructosyl-lysine, ε-D-fructosyl-L-lysine).
The concentration of the substrate as employed for the measurement was 2 mM, except for the use of 1 mM for di-D-fructosyl-lysine.
The data of the activity are relative values to the activity to D-fructosyl-glycine being 100.

Compound	Activity of the Enzyme (relative values to the activity to D-fructosyl-glycine being 100)
Di-D-fructosyl-lysine	3500

Same assay, conditions: substrate concentration 2 mM

Compound	Activity of the Enzyme (relative values to the activity to D-fructosyl-glycine being 100)
N[C@@H](CCCCNCC(=O)[C@@H](O)[C@H](O)[C@H](O)CO)C(=O)O [D-fructosyl-L-lysine]	1386
CNCC(=O)[C@@H](O)[C@H](O)[C@H](O)CO [D-fructosyl-methylamine]	105
O=C(CN1CCC[C@H]1C(=O)O)[C@@H](O)[C@H](O)[C@H](O)CO [D-fructosyl-L-proline]	1348
O=C(O)CNCC(=O)[C@@H](O)[C@H](O)[C@H](O)CO [D-fructosyl-glycine]	100
O=C(O)CCNCC(=O)[C@@H](O)[C@H](O)[C@H](O)CO [D-fructosyl-β-alanine]	44
C[C@@H](NCC(=O)[C@@H](O)[C@H](O)[C@H](O)CO)C(=O)O [D-fructosyl-D-alanine]	26
D-fructosyl-polylysine	34
C[C@H](NCC(=O)[C@@H](O)[C@H](O)[C@H](O)CO)C(=O)O [D-fructosyl-L-alanine]	251
O=C(O)[C@H](Cc1ccccc1)NCC(=O)[C@@H](O)[C@H](O)[C@H](O)CO [D-fructosyl-L-phenylalanine]	36
CN(CC(=O)O)CC(=O)[C@@H](O)[C@H](O)[C@H](O)CO [D-fructosyl-sarcosine]	63
